Measured values published in PMC10067601, “Identification of a peptide ligand for human ALDH3A1 through peptide phage display: Prediction and characterization of protein interaction sites and inhibition of ALDH3A1 enzymatic activity” (Frontiers in Molecular Biosciences, 2023).

Biological target: T1, human recombinant ALDH3A1 (Homo sapiens, UniProt P30838)
T1 construct: 6xHis (C); made in house; host or cells: E. coli, with chaperone co-expression (pG-KJE8 plasmid)
T1 sequence (P30838 1-453): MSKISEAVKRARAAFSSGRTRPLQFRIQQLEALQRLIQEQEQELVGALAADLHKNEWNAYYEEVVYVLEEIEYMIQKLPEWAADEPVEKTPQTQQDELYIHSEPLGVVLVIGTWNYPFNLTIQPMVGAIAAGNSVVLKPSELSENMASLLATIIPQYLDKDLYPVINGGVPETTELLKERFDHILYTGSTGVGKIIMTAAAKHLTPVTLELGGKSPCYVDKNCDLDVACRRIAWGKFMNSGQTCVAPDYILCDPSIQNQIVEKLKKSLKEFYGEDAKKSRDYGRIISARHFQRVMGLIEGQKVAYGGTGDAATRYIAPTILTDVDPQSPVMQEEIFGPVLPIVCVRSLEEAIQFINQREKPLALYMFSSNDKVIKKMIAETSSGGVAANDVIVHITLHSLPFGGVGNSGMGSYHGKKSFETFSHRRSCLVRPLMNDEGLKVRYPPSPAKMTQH
Assay: ALDH3A1 enzymatic assay, benzaldehyde oxidation
Type: biochemical
Conditions: for Enzymatic activity, % of control (Mean%): 40 μM CB29; for Enzymatic activity, % of control (Mean%) / Enzymatic Activity, AVERAGE of triplicates: mean of n = 3
Experimental: The ability of ALDH3A1 to oxidize benzaldehyde in the presence of P1 was estimated by monitoring the production of NADH as described earlier with minor modifications ([Voulgaridou et al., 2013]). Human recombinant ALDH3A1 was combined with P1 and diluted in Milli-Q water, at 1:1,000. The final reaction was placed in a 0.5 mL quartz cuvette containing 50 mM Tris-HCl pH 8.5, 50 mM 2-Mercaptoethanol, 1.5 mM […], 20 nM ALDH3A1, 20 μM P1, and 1 mM Benzaldehyde. The reaction was initiated by the addition of the benzaldehyde substrate and was monitored at 340 nm for 5 min using a spectrophotometer (Libra S22, Biochrom Ltd, Cambridge, United Kingdom). In the case of CB29, the final reaction contained 40 μM CB29. Enzymatic activity was calculated as dOD/dT∗molarextinctioncoeiffcient∗pathcorrection∗enzyme^′sconcentrationinfinalreaction where, dT = minutes, molar extinction coefficient = 6220 M^-1/cm, path correction = 1 cm.
All experiments were conducted in triplicates and presented as % of the control’s enzymatic activity. As a control, the final reaction contained the respective Milli-Q water volume without P1 or CB29.
At least three independent experiments were performed for each condition tested. The values are expressed as the mean ± standard deviation (SD). Statistical analysis was performed with Graph Pad Prism software (version 9.4.1) (Graph Pad Inc., La Jolla, CA, United States). For all assays, statistical differences between groups were evaluated either by Student’s t-test or ANOVA, for multiple comparisons, followed by Dunnett’s or Tukey’s test. A level of p < 0.01 was considered statistically significant.

[1] = 20 μM P1 (n = 4) or 40 μM CB29 (n = 3)

## CC(=O)Nc1ccc(Nc2ccc(S(C)(=O)=O)cc2[N+](=O)[O-])cc1 [CB29, reference compound]
20 μM P1 (4 experiments) or 40 μM CB29 (3 experiments), 1 mM benzaldehyde, 20 nM ALDH3A1, pH 8.5, 340 nm, 5 min
  Enzymatic activity, % of control, AVERAGE of experiments: 52.9548%
[1]
  25% Percentile, % of control activity: 47.24
  75% Percentile, % of control activity: 56.68
  Lower 95% CI of mean, % of control activity: 40.48
  Maximum, % of control activity: 56.68
  Mean, % of control activity: 52.95
  Median, % of control activity: 54.95
  Minimum, % of control activity: 47.24
  Upper 95% CI of mean, % of control activity: 65.43
CB29 Exp1, 1 mM benzaldehyde, 20 nM ALDH3A1, pH 8.5, 340 nm
  Enzymatic activity, % of control (Mean%): 56.6779%
CB29 Exp2, 1 mM benzaldehyde, 20 nM ALDH3A1, pH 8.5, 340 nm
  Enzymatic activity, % of control (Mean%): 54.9455%
CB29 Exp3, 1 mM benzaldehyde, 20 nM ALDH3A1, pH 8.5, 340 nm
  Enzymatic activity, % of control (Mean%): 47.241%
CB29 Exp1, 40 μM
  Enzymatic Activity, AVERAGE of triplicates: 7.722 µmol/min/mg
CB29 Exp2, 40 μM
  Enzymatic Activity, AVERAGE of triplicates: 6.9085 µmol/min/mg
CB29 Exp3, 40 μM
  Enzymatic Activity, AVERAGE of triplicates: 7.406 µmol/min/mg
Dunnett's multiple comparisons, 20 μM P1 or 40 μM CB29
  95,00% CI of diff, control vs. compound: 37,23 to 56,86
Dunnett's multiple comparisons, 20 μM P1 or 40 μM CB29, % of control activity
  Mean Diff, control vs. compound: 47.05
